These results are taken from patent US7803554B2, “Detection of binding factors with fluorescence polarization” (priority 2000, dated 2010).

One data set deals with SSB (Escherichia coli, UniProt P0AGE0). The conditions noted are these: fluorescence quenching methods; Molineux 1975, Krauss 1981; cited from earlier work.
For data set [1], the system named is mouse monoclonal antibody 8E11. Briefly: CE/LIF competitive binding of unlabeled BPDE-16-mer and TMR-BPDE-16-mer to antibody. Particulars: 9.6 nM 16mer*, 33 nM antibody. How it is done:
Simultaneous binding of two BPDE-DNA adducts to the antibody: Both TMR-labeled and unlabeled BPDE-adducts were allowed to bind with the antibody. The freshly diluted BPDE-16-mer (16mer) and TMR-BPDE-16-mer (16mer*) solutions were mixed together before addition of the antibody. Concentrations of the TMR-BPDE-16-mer and the antibody were kept constant at 9.6 nM and 33.3 nM, respectively, and the unlabeled BPDE-16-mer was varied from 2.5 nM to […]. The sample mixtures were incubated for 5 min at room temperature, then analyzed by CE/LIF. Similarly, the antibody was added to mixtures of the TMR-BPDE-16mer and BPDE-90mer to study the competitive binding and ligand exchange.
The relative changes of the primary and secondary complexes with varying concentrations of unlabeled 16mer when it is incubated with 9.6 nM TMR-labeled 16mer* and 33 nM (5 μg/mL) antibody were measured. When the concentration of the unlabeled 16mer is below 10 nM, the primary complex [Ab(16mer*)] dominates and its amount remains almost constant with increasing concentration of the unlabeled 16 mer up to 10 nM. The total ligand concentration (16mer* and 16mer) is lower compared with that of the antibody, and there are excess antibody binding sites available. Thus, no significant competition between the two ligands takes place. […]

The subject of data set [2] is mouse monoclonal antibody 8E11. The experiment in a line: CE/LIF binding stoichiometry of TMR-BPDE oligonucleotides with antibody. Particulars: 24 nM oligonucleotide. How it is done: The separation was carried out at room temperature with a separation voltage of 15 kV. The running buffer were either 1× tris-glycine (25 mM Tris, 192 mM glycine, pH 8.3) or 0.5× tris-glycine (12.5 mM tris and 96 mM glycine, pH 8.3). The capillary was washed approximately every 3 injections with 0.02 M NaOH electrophoretically at 15 kV for 7 min followed by electrophoresis using water and the running buffer for 7 min each. All capillary electrophoresis data were analyzed using Igor Pro software (version 3.1, WaveMetrics Inc., Lake Oswego, Oreg.).
Complex formation of TMR-labeled BPDE-DNA adducts and antibody: TMR-BPDE-16-mer and TMR-BPDE-90-mer samples were diluted to appropriate concentrations in running buffer (tris-glycine, pH 8.3). The double stranded BPDE-90-mer was denatured by heating at 95° C. for 5 min in a heating block. It was then placed on ice to prevent reannealing. After cooling, the samples were briefly centrifuged in a microcentrifuge (Z233M, Hermle) to collect condensation from the side of the tube, then gently mixed to ensure a homogenous solution. TMR-BPDE-16-mer was synthesized as a single-stranded oligonucleotide. […] After addition of antibody to the BPDE-oligonucleotide solutions, the samples were gently vortexed to ensure complete mixing and incubated at the room temperature for 5-10 min, then analyzed by CE/LIF. […]

Chain of SSB (P0AGE0 2-178 limits assumed): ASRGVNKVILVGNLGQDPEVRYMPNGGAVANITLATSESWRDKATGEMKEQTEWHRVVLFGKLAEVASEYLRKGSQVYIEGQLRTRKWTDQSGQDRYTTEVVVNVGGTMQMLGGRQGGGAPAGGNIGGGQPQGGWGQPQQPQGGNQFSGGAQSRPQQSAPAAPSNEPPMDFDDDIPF

Take d(pT)16: the “affinity of SSB” value on SSB is 1.4e+06 M⁻¹.

Regarding “unlabeled 16mer: unlabeled 16-mer 5′-CCCATTATGCATAACC-3′ with a BPDE adduct (chemistry not fully specified)”, in data set [1], the “competitor concentration at which secondary complexes reach a maximum” value is recorded as 100 nM and the “competitor concentration resulting in disappearance of the primary Ab(16mer*) complex” value is given as “above 250 nM”.

Consider “16mer*: 5′-TMR-labeled 16-mer 5′-CCCATTATGCATAACC-3′ with a single BPDE adduct (single BPDE adduct, position not given here)”, for which, in data set [2] (antibody 1 μg/mL (maximum)), the “share of total oligonucleotide present as secondary complex (1:2)” value is listed as 50%. For the same substance, in data set [2] (antibody 8-16 μg/mL (50-100 nM)), the “share of total oligonucleotide present as primary complex (1:1) with the antibody” value is given as 80-85%.

Regarding d(pT)8, the “affinity of SSB” value at SSB was “about 2×10^6 M^−1”.
